Measured values as given in US10206930B2, “Methods for treating T-cell acute lymphoblastic leukemia” (New York University, priority 2015, dated 2019).

Experiments:
[1] = test system: human T-ALL cell lines and primary human T-ALL cells; experiment: Cell growth, annexin V apoptosis and BrdU cell cycle analysis of T-ALL cells; format: cell-based; design: dose or concentration left out as unconfirmed
Source text: Mice, Cell Culture and Primary Cell Samples. The Jmjd3 (Satoh et al., “The Jmjd3-Irf4 Axis Regulates M2 Macrophage Polarization and Host Responses Against Helminth Infection,” Nature Immunol. 11:936-944 (2010), which is hereby incorporated in its entirety) and Utx (Welstead et al., “X-linked H3K27me3 Demethylase Utx is Required for Embryonic Development in a Sex-Specific Manner,” Proc. Natl. Acad. Sci. USA 109:13004-13009 (2012), which is hereby incorporated by reference in its entirety) knockout mouse models, as well as the corresponding genotyping strategy, have been described previously. All animals used in this study were treated according to IACU protocols. The human T-ALL cell lines CUTLL1 (Palomero et al., “CUTLL1, a Novel Human T-Cell Lymphoma Cell Line With t(7; 9) Rearrangement, Aberrant NOTCH1 Activation and High Sensitivity to c-Secretase Inhibitors,” Leukemia 20:1279-1287 (2006), which is hereby incorporated by reference in its entirety), P12-Ichikawa, Loucy, DND41, CEM and Jurkat and the myeloid leukaemia cell lines (THP-1 and HL-60), as well as the mouse T-ALL line (720) (Sharma et al., “Notch1 Contributes to Mouse T-cell Leukemia by Directly Inducing the Expression of c-myc,” Mol. Cell. Biol. 26:8022-8031 (2006), which is hereby incorporated by reference in its entirety), were cultured in RPMI 1640 medium supplemented with 20% FBS and penicillin and streptomycin. […] Primary human samples were collected by collaborating institutions with informed consent and were analyzed under the supervision of the Columbia University Medical Center and St. Jude Children's Research Hospital Institutional Review Boards. […]
T-ALL cells were infected twice with shRNA-expressing retroviruses and selected using puromycin. […] For the cell cycle analysis, 5-bromodeoxyuridine (BrdU; 10 mM) was added for a 1 hour pulse, and incorporation into DNA was determined by using the BrdU Flow Kit (BD Biosciences). Apoptosis was studied by quantification of annexin V staining using the BD Biosciences kit and flow cytometry according to standard protocols provided by the manufacturer. […]

[2] = test system: human T-ALL cells (CUTLL1); experiment: Genome-wide expression analysis (RNA-seq) of treated T-ALL cells; format: cell-based
Protocol: Whole RNA was extracted from 1-5×10^6 T-ALL cells or primary cells using the RNeasy kit (QIAGEN) according to the manufacturer's protocol. Poly(A)^+ RNA was enriched using magnetic oligo(dT)-containing beads (Invitrogen). cDNA was prepared and strand-specific libraries were constructed using the dUTP method as described previously (Zhong et al., “High-Throughput Illumina Strand-Specific RNA Sequencing Library Preparation,” Cold Spring Harb. Protoc. 2011:940-949 (2011), which is hereby incorporated by reference in its entirety). Libraries were sequenced on the IIlumina HiSeq 2000 using the 50-base-pair single-read method.
Differential gene expression analysis was performed for each matched knockdown versus control pair, separately in each biological or technical replicate in each of two cell lines (CUTLL1 and CEM). Three types of comparisons were tested: (1) JMJD3 knockdown versus Renilla; (2) JMJD3 knockdown versus UTX knockdown; and (3) UTX knockdown versus Renilla. DEGseq44 was used to analyze (a) matched knockdown—Renilla replicates in separate DEGseq runs and (b) all replicates on a combined DEGexp run. For the mouse (Utx knockout) samples, spleen and bone marrow from a wild-type male (referred to as animal #9), as well as spleen from a wild-type female (animal #10), were compared with spleen and bone marrow from a knockout male (#23) and spleen from another knockout male (#27) (see also the GEO accession G5E56696). For illustration, scatter plots (FIG. 4D and FIGS. 5G-I) were created using values obtained from DEGseq analysis of merged biological and/or technical replicates. Gene RNA-seq FPKM values were computed using GenomicTools (Tsirigos et al., “GenomicTools: A Computational Platform for Developing High-Throughput Analytics in Genomics,” Bioinformatics 28:282-283 (2012), which is hereby incorporated by reference in its entirety). The P-value cutoff for differential expression was set at 1×10^−5, with the minimum absolute log2 fold change set at 0.5.

[3] = test system: H3K27me3 levels at repressed genes; experiment: H3K27me3 ChIP at repressed genes upon GSKJ4 treatment; format: cell-based, human; details: 24 to 72 hours post-GSKJ4 treatment
Protocol: ChIP experiments were performed as described previously (Ntziachristos et al., “Genetic Inactivation of the Polycomb Repressive Complex 2 in T Cell Acute Lymphoblastic Leukemia,” Nature Med. 18:298-303 (2012), which is hereby incorporated by reference in its entirety). In brief, for the analysis of histone marks, the cells were fixed with 1% formaldehyde for 10 minutes at 25° C. and lysed them by the addition of nucleus incubation buffer (15 mM Tris, pH 7.5, 60 mM KCl, 150 mM NaCl, 15 mM MgCl2, 1 mM CaCl2, 250 mM sucrose and 0.3% NP-40) and incubation at 4° C. for 10 minutes. […]
First, enriched ChIP-seq windows were identified separately for each of the two samples under comparison using a window-based approach and the binomial probability distribution to compare signal reads with control reads in each window. Subsequently, for each genomic window enriched in at least one of the two samples, the total number of reads was determined, and the window read counts were normalized using quantile normalization across biological replicates and samples before comparison. […] This comparison was performed independently at different H3K27me3 read density levels to control for artificially high fold changes due to low read counts in the denominator. […]

[4] = test system: myeloid leukaemia cells, stromal cells and haematopoietic progenitor cells; experiment: Growth of non-T-ALL control cells under GSKJ4; format: cell-based; details: FIGS. 12L-12M
[5] = test system: T-ALL cells; experiment: IC50 of GSKJ4 on T-ALL cell proliferation, normalized to control inhibitor GSKJ5; format: cell-based; details: Homo sapiens, 120 h, 5 days treatment, FIG. 11A CUTLL1, read-out: IC50 determined for T-ALL cells
[6] = test system: human T-ALL cells; experiment: shRNA knockdown: loss of representation studies and apoptosis assays; format: cell-based; details: shRNA treatment
Protocol: T-ALL cells were infected twice with shRNA-expressing retroviruses and selected using puromycin. Expression studies took place at different time points during the selection period, and the results are presented from day 4 during selection. […] For the cell cycle analysis, 5-bromodeoxyuridine (BrdU; 10 mM) was added for a 1 hour pulse, and incorporation into DNA was determined by using the BrdU Flow Kit (BD Biosciences). Apoptosis was studied by quantification of annexin V staining using the BD Biosciences kit and flow cytometry according to standard protocols provided by the manufacturer. Doxycycline was used at […] final concentration.
Protein-G-coated magnetic beads were purchased from Invitrogen. […] Reporter fluorescence was used (as determined by flow cytometry) for the quantification of shRNA.

[7] = test system: T-ALL cell lines (CUTLL1, CEM and P12); experiment: Subcutaneous or intravenous xenograft of shRNA-treated T-ALL cell lines; format: in vivo, mouse; details: immunocompromised NRG mice; compared with shRenilla-treated cell lines
Protocol: Studies were conducted as previously published (Ntziachristos et al., “Genetic Inactivation of the Polycomb Repressive Complex 2 in T Cell Acute Lymphoblastic Leukemia,” Nature Med. 18:298-303 (2012), which is hereby incorporated by reference in its entirety). In both cases, CUTLL1, P12 or CEM T-ALL cells expressing luciferase (FUW-LUC) and the corresponding shRNA (shJMJD3, shUTX or shRenilla) were used. For the intravenous studies, 1×10^6 cells were injected retroorbitally into sublethally irradiated female NRG (NOD Rag1^−/−Il2rg^−/−) mice. For subcutaneous studies, 1×10^6 cells were mixed with an equal volume of BD Matrigel basement membrane and injected into the flanks of female NOD-SCID mice. In both cases, cell growth was monitored every 2 days using IVIS (Caliper, PerkinElmer).

[8] = GSKJ4 vs control inhibitor GSKJ5

Molecule: CCOC(=O)CCNc1cc(N2CCc3ccccc3CC2)nc(-c2ccccn2)n1 [GSKJ4, ethyl 3-((6-(4,5-dihydro-1H-benzo[d]azepin-3(2H)-yl)-2-(pyridin-2-yl)pyrimidin-4-yl)amino)propanoate]
- apoptosis (annexin V) [1, 8]: increased apoptosis
- cell cycle effect [1, 8]: cell cycle arrest
- growth of human T-ALL cell lines and primary human T-ALL cells ([1]; GSKJ4 vs control inhibitor GSKJ5, 24-72 hours): significantly affected the growth
- number of downregulated genes ([2]; CUTLL1, 72 hours of treatment with GSKJ4): 486 genes
- H3K27me3 levels at repressed genes [3]: increase in the H3K27me3 levels
- growth of myeloid leukaemia cells, stromal cells and haematopoietic progenitor cells [4]: unaffected
- IC50 [5]: 2000 nM

B1: shUTX: shRNA against UTX, SEQ ID NO: 5 (nucleic acid)
chain: ACACAAGGTAGTCTACAGAATATAGTGAAGCCACAGATGTATATTCTGTAGACTACCTTGTGG
- number of significantly downregulated protein-coding genes ([2]; shRNA knockdown): 46 genes
- number of significantly upregulated protein-coding genes ([2]; shRNA knockdown): 189 genes
- viability of leukaemic cells [6]: not

B2: shJMJD3A: shRNA against JMJD3, SEQ ID NO: 3 (nucleic acid)
chain: CAGGGAAGTTTCGAGAAGTCCTATAGTGAAGCCACAGATGTATAGGACTCTCGAACTTCCCTT
- in vivo growth of transplanted T-ALL cells [7]: significant growth disadvantage

B3: shJMJD3B: shRNA against JMJD3, SEQ ID NO: 4 (nucleic acid)
chain: ACACCAGCAGTAGCAACAGCAATAGTGAAGCCACAGATGTATTGCTGTTGCTACTGCTGGTGG
- in vivo growth of transplanted T-ALL cells [7]: significant growth disadvantage
